From US8142799B2, “High potency clinical anti-craving treatment and method of use” (priority 2001, dated 2012)

N[C@@H](CCC(=O)N[C@@H](CS)C(=O)NCC(=O)O)C(=O)O [L-glutathione]
time to PH breakdown (L-Glutathione at a PH value of roughly 7 in the amino-acid component): a few weeks
PH above which L-glutathione itself breaks down (at compounding): above 7.2
